Assays:
[1] = system: taxane site of assembled cross-linked MTs; assay: Displacement of FTX2 from the taxane site (fluorescence polarization); assay type: binding, calf; details: 35 °C
Experimental: Purified calf brain tubulin and chemicals were obtained as previously described. Tau-mCherry was expressed and purified as described previously. Human Kif5B-EGFP (amino acids 1-905), containing a C terminal fluorescent-tag followed by a 3C protease cleavage site and a 6 × His-tag was expressed and purified as in with some modifications. Prior to purification, cells were resuspended in 1:1 ratio of lysis buffer (30 mM HEPES pH 7.5, 300 mM NaCl, 0.5 mM ATP, 5% glycerol, 20 mM imidazole, […]) supplemented with 1× Protease inhibitor cocktail and benzonase to the final concentration of 25 units/ml. Cells were homogenized by repeated pipetting. Cells were lysed by spinning for 45 min at 40,000 rpm in 45 Ti fixed-angle rotor (Beckman Coulter) at 4 °C. The supernatant was incubated with pre-equilibrated HisPUR NiNTA agarose resin (Thermo Fisher Scientific) for 1 h in a tightly closed gravity-flow column (Thermo Fisher Scientific) at 4 °C by slowly rotating. Subsequently, the resin was washed once lysis buffer and then with buffer B (30 mM HEPES pH 7.5, 300 mM NaCl, 0.5 mM ATP, 5% glycerol, 30 mM imidazole, […]). The protein was eluted from the resin after an overnight cleavage of the 6 × His-tag with 3C HRV protease in lysis buffer at 4 °C. The eluted protein was further purified via size exclusion chromatography on Superdex 200 10/300 GL column equilibrated in exclusion buffer (30 mM HEPES pH 7.5, 300 mM NaCl, 0.5 mM ATP, 5% glycerol, […]). Peak fractions were analyzed via SDS-PAGE, pooled and the protein was concentrated with Amicon Ultra-15 Centrifugal Filter tubes (Millipore). Purified proteins were aliquoted, snap-frozen in liquid N2, and stored at −80 °C.
The equilibrium binding constant of 1a and 1b to the taxane site of assembled MTs were determined by the displacement of FTX2 from the taxane site in cross-linked MTs. The displacement isotherm of each ligand was measured at least three times in two different plates with a fluorescence polarization microplate reader, as described. A mixture of 50 nM taxane binding sites and 50 nM FTX2 in GAB buffer was sampled in a 96-well plate. […] After mixing the samples for 10 min by shaking at 250 rpm, they were incubated 20 min at the desired temperatures (26, 35 or 42 °C) and their anisotropies were measured using a Spark Tecan plater reader in fluorescence polarization at emission of 535 nm and excitation of 485 nm. A sample containing 50 nM taxane binding sites was employed as blank, and a 50 nM solution of FTX2 in GAB, 0.1 mM GTP was employed as anisotropy standard. G factor was calculated as a mean over several cells in different conditions. The molar saturation fraction, X b , of the probe for each competitor concentration is calculated from the polarization values measured, P. Measurements of the polarization of FTX2 completely displaced (P 0 ) and, in absence of the competitor ligand (P sat), are required for data processing. The binding of FTX2 in the presence of the competitor ligand (X b = (P–P 0 /P sat – P 0 ) · X sat) was calculated and best fitted to the equilibrium binding constant of the competitor assuming unitary stoichiometry and the binding constant of the reference ligand (FTX2) with a PC program (Equigra v5).
Once the equilibrium binding constants are measured at different temperatures, the standard free energy of binding at a given temperature is calculated from the binding constant as ΔG 0app = −RT Ln K a, the standard enthalpy of the binding reaction is calculated from the representation of Ln K a versus 1/T (Van’t Hoff representation), and the slope of this representation multiplied by −R is equal to −ΔH 0app. The standard entropy of binding to ΔS 0app is calculated from the slope of the linear regression of ΔG 0app versus T.

[2] = system: human Kif5B 1–905-EGFP on stabilized MTs; assay: Single-molecule kinesin-1 motility assay on stabilized MTs (TIRF); assay type: biochemical; details: 1.08 nM Kif5b-EGFP, 10 μM drug
Experimental: To gain mechanistic insight into the kinesin phenotype observed in cells, we reduced system complexity using an in vitro reconstitution assay. Specifically, we performed time-lapse imaging using total internal reflection fluorescence (TIRF) microscopy with immobilized and stabilized MTs in a flow chamber, into which we introduced 1.08 nM kinesin-1 motors (constitutively active human Kif5B 1–905-EGFP). We then analyzed individual kinesin movements to quantify landing rates (number of motors per unit MT length per unit time), run lengths, interaction times, and average velocities (Figure D, Movies S12–S15). In contrast to our experiments in cells, here we evaluated each structural modification individually to dissect the effects of MT lattice parameters on kinesin-1 mediated transport.
(§1) Total Internal Reflection Fluorescence microscopy experiments were performed on an inverted widefield microscope Nikon-Ti2 E, equipped with a motorized XY-stage, a perfect focus system, Apo TIRF 60× oil NA 1.49 objective and PRIME BSY (Teledyne Photometrics) camera. MTs were visualized using Interference Reflection microscopy (IRM) and fluorescently labeled proteins were visualized sequentially by switching between microscope filter cubes for GFP and mCherry channels. The microscopes were controlled using NIS Elements software (Nikon). All experiments were conducted at RT.
(§2) Microscopy chambers were prepared from two sandwiched silanized glass coverslips (22 × 22 mm^2 and 18 × 18 mm^2) attached through parafilm strips (heated for 15–20 s at 60 °C and gently pressed together) to form ∼2.5 mm wide parallel flow channels. Prior to the chamber assembly, the coverslips were washed in 3 M KOH, cleaned using Zepto plasma cleaner (Diener electronic) and silanized with hexamethyldisilazane. Flow channels were first incubated with 40 μgml^–1 antibiotin antibodies (Sigma, B3640) in PBS for 10 min, followed by incubation with 1% Pluronic F127 (Sigma-Aldrich, P2443) in PBS for at least 1 h. F127 was washed with BRB80 (80 mM PIPES, 1 mM EGTA, 1 mM MgCl2, pH 6.9).
(§3) Porcine brain tubulin was isolated using the high-molarity PIPES procedure then mixed with Biotin labeled tubulin (Cytoskeleton Inc., T333P) in 1:49 ratio. All MTs were polymerized using 2% biotin-labeled tubulin. […] Polymerized MTs were centrifuged for 30 min at 18,000g in a Microfuge 18 Centrifuge (Beckman Coulter’s). […] Drug stabilized preassembly MTs (polymerized in the presence of drugs and GTP, stored and imaged in presence of drug) were polymerized from 4 mg mL^–1 biotinylated tubulin for 30 min at 37 °C in BRB80 supplemented with 4 mM MgCl2, 40 μM drug of interest in 5% DMSO, and 1 mM GTP. Polymerized MTs were centrifuged for 30 min at 18,000g in a Microfuge 18 Centrifuge (Beckman Coulter’s). […] GMPCPP stabilized MTs (GMPCPP polymerized) were assembled from 4 mg mL^–1 biotinylated tubulin for 2 h at 37 °C in BRB80 supplemented with 1 mM MgCl2 and 1 mM GMPCPP (Jena Bioscience, NU-405). Polymerized MTs were centrifuged for 30 min at 18,000g in a Microfuge 18 Centrifuge (Beckman Coulter’s) and pellets were resuspended and kept in BRB80.
(§4) Stabilized MTs were flushed into the channel and incubated for 15–30 s to allow for surface attachment. Unbound MTs were removed by washing with BRB80 supplemented with 10 μM of drug. Prior the experiment, the solution was exchanged by motility buffer, MB (BRB80 containing 10 mM DTT, 20 mM D-glucose, 0.1% Tween-20, 0.5 mg/mL casein, 1 mM Mg-ATP, 0.02 mg/mL catalase, 0.22 mg/mL glucose oxidase, 10 μM drug). Subsequently, a solution containing either 1.08 nM Kif5b-EGFP or 10/40 nM mCherry-Tau in MB was introduced into the chamber.
To assess kinesin-EGFP motility along MTs, an IRM image (50 ms exposure) was acquired followed by a 1 min video using 488 nm laser excitation (20% laser intensity, 300 ms exposure) with no delay. Two to three videos were recorded from different fields within the same channel and at least 2 channels were measure for each experimental condition. […]

[3] = system: Tau-mCherry (Tau 441 isoform) on stabilized MTs from porcine brain tubulin; assay: Tau-mCherry binding to stabilized MTs (TIRF); assay type: biochemical; details: 40 nM Tau-mCherry
Text: Previous studies in vitro have shown that Tau molecules strongly prefer compacted GDP lattices. Tau binds cooperatively to MT surfaces, resulting in a cohesive layer depending on tau-tau interactions, termed MT envelope, which selectively regulates access to MT lattices, and shields MTs from severing enzymes. − On expanded PTX-MTs, Tau envelope also forms and the lattice can get locally compacted. To further explore how MT lattice structure influences Tau binding, we employed an in vitro reconstitution assay. We deposited stabilized MTs in a flow chamber, and visualized them via interference reflection microscopy (Figure C). We then added 10 nM Tau-mCherry (labeled purified Tau 441 isoform at the C-terminus with mCherry) and monitored its association with MTs using time-lapse TIRF microscopy. After 4 min, we increased Tau concentration to 40 nM, and continued imaging for an additional 4 min. We measured fluorescence intensities along MTs to quantify Tau binding (Movies S16–S27). […] PTXpost-MTs also supported […] faster envelope growth (0.20 ± 0.02 μm/s versus 0.054 ± 0.006 μm/s for PTXpre-MTs, Figure H).
as §1, §2, §3
as §4, with “chamber. […]” for “chamber.”

Row | Compound | incremental binding free energy (ΔΔG), PTX-to-derivative modification [1] [kJ mol^–1] | kinesin-1 landing rate on stabilized MTs [2] | kinesin-1 time bound on stabilized MTs [2] | kinesin-1 velocity on stabilized MTs [2] | Tau-mCherry coating of stabilized MTs [3]
1 | CC(=O)OC1C(=O)C2(C)C(OC(=O)C(C)NC(=O)CCCCCNC(=O)c3ccc(-c4c5ccc(=O)cc-5oc5cc(O)ccc45)c(C(=O)O)c3)CC3OCC3(OC(C)=O)C2C(OC(=O)c2ccccc2)C2(O)CC(OC(=O)C(O)C(NC(=O)c3ccccc3)c3ccccc3)C(C)=C1C2(C)C (stereo not drawn) [HFX, Hexaflutax, reference compound] | 6.9 |  |  |  | 
2 | Flutax-1 [reference compound] | −1.63 |  |  |  | 
3 | Nc1nc2c(ncn2C2OC(COP(=O)(O)CP(=O)(O)OP(=O)(O)O)C(O)C2O)c(=O)[nH]1 (stereo not drawn) [GMPCPP, guanosine-5′-[(α,β)-methyleno]triphosphate] |  | decreased on GMPCPP compared with PTX | increased the time bound | decreased the velocity | bound diffusively

Reference: paper PMC13492380, “Dissecting Structural and Functional Determinants of Microtubules Stabilization through Guided Chemical Modulation” (Journal of Medicinal Chemistry, 2026)
